Test results taken from ChEMBL document CHEMBL3885861, “Open TG-GATES”.
Where “and” joins values, the source holds several entries; their conditions need not be identical. Identical values can stand only once.

Organism: Rattus norvegicus
Assay: Open TG-GATES - Regimen: Single
Assay type: toxicity, organism-based, Sprague-Dawley
Set-up: regimen Single, gender Male, age 6 weeks
Conditions: in vivo, po, 0 mg/kg, route gavage, dose level Control; for APTT / Bas / Eos / Fbg / Hb / Ht / Lym / MCH / MCHC / MCV / Mono / Neu / PT / Plat / RBC / Ret / WBC: tissue Blood; for KIDNEY_L / KIDNEY_R / KIDNEY_TOTAL: tissue Kidney; for LIVER: tissue Liver

`O=C1CN(/N=C/c2ccc([N+](=O)[O-])o2)C(=O)N1` [NITROFURANTOIN] was tested, and the TERMINAL_BW (3 h) was 220.5 g and 212 g, the APTT (3 h) was 20.2 s and 16.2 s and the Bas (3 h) was 0%. The Eos (3 h) was 0.8% and 1.4%, the Fbg (3 h) was 213.2 mg/dL and 223.8 mg/dL and the Hb (3 h) was 13.3 g/dL and 12.9 g/dL. For the same molecule, the Ht (3 h) was 37.7% and 38.8%, the Lym (3 h) was 79.2% and 74% and the MCH (3 h) was 21.5 pg. For the same molecule, the MCHC (3 h) was 35.3% and 33.1%, the MCV (3 h) was 60.7 fL and 64.8 fL and the Mono (3 h) was 2% and 5%. The Neu (3 h) was 16.4% and 20.2%, the PT (3 h) was 12.9 s and 12 s and the Plat (3 h) was 112.1 x10_4/uL and 122.4 x10_4/uL. The RBC (3 h) was 620.6 x10_4/ul and 599.8 x10_4/ul, the Ret (3 h) was 7.4% and 6.9% and the WBC (3 h) was 98.8 x10_2/uL and 73.8 x10_2/uL. For the same molecule, the KIDNEY_L (3 h) was 1 g and 0.9 g, the KIDNEY_R (3 h) was 1 g and 0.9 g and the KIDNEY_TOTAL (3 h) was 2 g and 1.9 g. The LIVER (3 h) was 10.4 g and 9.4 g, the A/G (3 h, tissue Plasma) was 1.7 and 2.2 and the ALP (3 h, tissue Plasma) was 989 IU/L and 1656.4 IU/L. The ALT (3 h, tissue Plasma) was 38.8 IU/L and 39.2 IU/L, the AST (3 h, tissue Plasma) was 67.6 IU/L and 66.6 IU/L and the BUN (3 h, tissue Plasma) was 11.6 mg/dL and 13 mg/dL. The CRE (3 h, tissue Plasma) was 0.4 mg/dL and 0.3 mg/dL, the Ca (3 h, tissue Plasma) was 10.8 mg/dL and 11.1 mg/dL and the Cl (3 h, tissue Plasma) was 101.6 meq/L and 104 meq/L. The GLC (3 h, tissue Plasma) was 190.2 mg/dL and 202 mg/dL, the IP (3 h, tissue Plasma) was 8.4 mg/dL and 9.1 mg/dL and the K (3 h, tissue Plasma) was 4 meq/L and 4.5 meq/L. For the same molecule, the LDH (3 h, tissue Plasma) was 180.2 IU/L and 74.6 IU/L, the Na (3 h, tissue Plasma) was 140.6 meq/L and 139.2 meq/L and the PL (3 h, tissue Plasma) was 135.4 mg/dL and 141.2 mg/dL. For the same molecule, the RALB (3 h, tissue Plasma) was 3.5 g/dL and 3.8 g/dL, the TC (3 h, tissue Plasma) was 73.4 mg/dL and 84.8 mg/dL and the TG (3 h, tissue Plasma) was 80.2 mg/dL and 53 mg/dL. For the same molecule, the TP (3 h, tissue Plasma) was 5.6 g/dL and 5.5 g/dL, the gamma-GTP (3 h, tissue Plasma) was 1 IU/L and the TERMINAL_BW (6 h) was 219 g and 212.6 g. The APTT (6 h) was 19.5 s and 16.2 s, the Bas (6 h) was 0% and the Eos (6 h) was 1%. For the same molecule, the Fbg (6 h) was 221.8 mg/dL and 224 mg/dL, the Hb (6 h) was 12.9 g/dL and 12.6 g/dL and the Ht (6 h) was 36.6% and 38.1%. For the same molecule, the Lym (6 h) was 75.4% and 75.2%, the MCH (6 h) was 21.8 pg and 21 pg and the MCHC (6 h) was 35.4% and 33.1%. For the same molecule, the MCV (6 h) was 61.6 fL and 63.7 fL, the Mono (6 h) was 3.4% and 6.6% and the Neu (6 h) was 18.8% and 17.2%. For the same molecule, the PT (6 h) was 12.7 s and 12 s, the Plat (6 h) was 108.3 x10_4/uL and 124 x10_4/uL and the RBC (6 h) was 594.4 x10_4/ul and 598.8 x10_4/ul. For the same molecule, the Ret (6 h) was 7.9% and 7.7%, the WBC (6 h) was 107.6 x10_2/uL and 78.5 x10_2/uL and the KIDNEY_L (6 h) was 1 g and 0.9 g. The KIDNEY_R (6 h) was 1 g, the KIDNEY_TOTAL (6 h) was 2 g and 1.9 g and the LIVER (6 h) was 9.8 g. The A/G (6 h, tissue Plasma) was 1.5 and 2.3, the ALP (6 h, tissue Plasma) was 798.6 IU/L and 1341.4 IU/L and the ALT (6 h, tissue Plasma) was 34.4 IU/L and 35.2 IU/L. The AST (6 h, tissue Plasma) was 61 IU/L and 65.8 IU/L, the BUN (6 h, tissue Plasma) was 12 mg/dL and 14.8 mg/dL and the CRE (6 h, tissue Plasma) was 0.4 mg/dL. For the same molecule, the Ca (6 h, tissue Plasma) was 10.8 mg/dL and 10.9 mg/dL, the Cl (6 h, tissue Plasma) was 102.4 meq/L and 103.8 meq/L and the GLC (6 h, tissue Plasma) was 185.8 mg/dL and 193.2 mg/dL. The IP (6 h, tissue Plasma) was 8.6 mg/dL and 7.9 mg/dL, the K (6 h, tissue Plasma) was 4.2 meq/L and 4.6 meq/L and the LDH (6 h, tissue Plasma) was 177 IU/L and 74.4 IU/L. For the same molecule, the Na (6 h, tissue Plasma) was 140.4 meq/L and 137.2 meq/L, the PL (6 h, tissue Plasma) was 137.2 mg/dL and 147 mg/dL and the RALB (6 h, tissue Plasma) was 3.2 g/dL and 3.8 g/dL. For the same molecule, the TC (6 h, tissue Plasma) was 80 mg/dL and 86 mg/dL, the TG (6 h, tissue Plasma) was 54 mg/dL and 118.6 mg/dL and the TP (6 h, tissue Plasma) was 5.4 g/dL. For the same molecule, the gamma-GTP (6 h, tissue Plasma) was 1 IU/L and 0.4 IU/L, the TERMINAL_BW (9 h) was 214.5 g and 212 g and the APTT (9 h) was 19.4 s and 16 s. For the same molecule, the Bas (9 h) was 0%, the Eos (9 h) was 1% and the Fbg (9 h) was 216.6 mg/dL and 235.2 mg/dL. The Hb (9 h) was 13.5 g/dL and 12.9 g/dL, the Ht (9 h) was 38.4% and 39.4% and the Lym (9 h) was 77.2% and 72%. The MCH (9 h) was 21.4 pg and 21.3 pg, the MCHC (9 h) was 35.3% and 32.7% and the MCV (9 h) was 60.8 fL and 64.9 fL. For the same molecule, the Mono (9 h) was 2.8% and 8.8%, the Neu (9 h) was 18.2% and 18.4% and the PT (9 h) was 12.7 s and 11.8 s. For the same molecule, the Plat (9 h) was 113.7 x10_4/uL and 107.9 x10_4/uL, the RBC (9 h) was 633.4 x10_4/ul and 606 x10_4/ul and the Ret (9 h) was 7.1%. For the same molecule, the WBC (9 h) was 86.1 x10_2/uL and 82.1 x10_2/uL, the KIDNEY_L (9 h) was 1 g and 0.9 g and the KIDNEY_R (9 h) was 1 g and 0.9 g. The KIDNEY_TOTAL (9 h) was 2 g and 1.8 g, the LIVER (9 h) was 9.3 g and 10.4 g and the A/G (9 h, tissue Plasma) was 1.6 and 2.2. The ALP (9 h, tissue Plasma) was 901.6 IU/L and 1778 IU/L, the ALT (9 h, tissue Plasma) was 34.4 IU/L and 40.2 IU/L and the AST (9 h, tissue Plasma) was 62.2 IU/L and 71 IU/L. For the same molecule, the BUN (9 h, tissue Plasma) was 11.6 mg/dL and 14.6 mg/dL, the CRE (9 h, tissue Plasma) was 0.4 mg/dL and 0.3 mg/dL and the Ca (9 h, tissue Plasma) was 10.6 mg/dL and 11.3 mg/dL. For the same molecule, the Cl (9 h, tissue Plasma) was 102.2 meq/L and 104.4 meq/L, the GLC (9 h, tissue Plasma) was 194 mg/dL and 183.2 mg/dL and the IP (9 h, tissue Plasma) was 9.3 mg/dL and 7.7 mg/dL. The K (9 h, tissue Plasma) was 4 meq/L and 4.9 meq/L, the LDH (9 h, tissue Plasma) was 211.8 IU/L and 71.2 IU/L and the Na (9 h, tissue Plasma) was 140.2 meq/L and 137.2 meq/L. For the same molecule, the PL (9 h, tissue Plasma) was 143.8 mg/dL and 168 mg/dL, the RALB (9 h, tissue Plasma) was 3.3 g/dL and 3.9 g/dL and the TBIL (9 h, tissue Plasma) was 0.1 mg/dL and 0.038 mg/dL. For the same molecule, the TC (9 h, tissue Plasma) was 78.8 mg/dL and 100.6 mg/dL, the TG (9 h, tissue Plasma) was 77.2 mg/dL and 109.6 mg/dL and the TP (9 h, tissue Plasma) was 5.3 g/dL and 5.6 g/dL. The gamma-GTP (9 h, tissue Plasma) was 0.6 IU/L and 1 IU/L, the TERMINAL_BW (24 h) was 232.8 g and 218.4 g and the APTT (24 h) was 19 s and 15.6 s. The Bas (24 h) was 0%, the Eos (24 h) was 1% and the Fbg (24 h) was 219.8 mg/dL and 239.4 mg/dL. For the same molecule, the Hb (24 h) was 13.6 g/dL and 13.4 g/dL, the Ht (24 h) was 39.2% and 40.4% and the Lym (24 h) was 75.2% and 73%. The MCH (24 h) was 22 pg and 21.7 pg, the MCHC (24 h) was 34.9% and 33.3% and the MCV (24 h) was 63.2 fL and 65.2 fL. For the same molecule, the Mono (24 h) was 3% and 10.2%, the Neu (24 h) was 19.6% and 15.6% and the PT (24 h) was 12.5 s and 11.7 s. For the same molecule, the Plat (24 h) was 119.5 x10_4/uL and 120.8 x10_4/uL, the RBC (24 h) was 620.4 x10_4/ul and 619 x10_4/ul and the Ret (24 h) was 7% and 6.5%. The WBC (24 h) was 95.9 x10_2/uL and 73.9 x10_2/uL, the KIDNEY_L (24 h) was 1 g and the KIDNEY_R (24 h) was 1.1 g and 1 g. The KIDNEY_TOTAL (24 h) was 2.1 g and 2 g, the LIVER (24 h) was 11.1 g and 10.1 g and the A/G (24 h, tissue Plasma) was 1.4 and 2.4. The ALP (24 h, tissue Plasma) was 1022.4 IU/L and 1561.4 IU/L.
